The record followed here is US20030144360A1, “Composition and method for modulating BAR/FXR receptor activity” (Allergan Sales, Inc., priority 2001, published 2003).

The structures appear in SMILES notation.

The target of assay [1] is T1, BAR-RXRm heterodimers (Rattus norvegicus, UniProt Q62735).
T1 construct: nucleic acid regions encoding the following full-length proteins were cloned into a CMV expression vector; made in house; host or cells: receptors: in vitro translation; GST-GRIP1: E. coli
T1 sequence (Q62735 1-469): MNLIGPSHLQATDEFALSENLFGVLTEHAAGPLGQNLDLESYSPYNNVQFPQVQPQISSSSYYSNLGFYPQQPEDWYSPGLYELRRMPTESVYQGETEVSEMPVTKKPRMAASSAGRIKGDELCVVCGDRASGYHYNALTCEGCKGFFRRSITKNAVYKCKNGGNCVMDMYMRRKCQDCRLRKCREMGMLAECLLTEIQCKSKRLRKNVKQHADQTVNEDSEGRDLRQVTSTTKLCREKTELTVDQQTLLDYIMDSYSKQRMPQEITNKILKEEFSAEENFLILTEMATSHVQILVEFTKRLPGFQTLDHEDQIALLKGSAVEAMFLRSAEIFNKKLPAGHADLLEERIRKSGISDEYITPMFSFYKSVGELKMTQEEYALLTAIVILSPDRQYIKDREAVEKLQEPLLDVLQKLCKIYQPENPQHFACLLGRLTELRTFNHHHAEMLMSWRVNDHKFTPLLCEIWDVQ
T1 sequence (P19793 1-462 D322P partner): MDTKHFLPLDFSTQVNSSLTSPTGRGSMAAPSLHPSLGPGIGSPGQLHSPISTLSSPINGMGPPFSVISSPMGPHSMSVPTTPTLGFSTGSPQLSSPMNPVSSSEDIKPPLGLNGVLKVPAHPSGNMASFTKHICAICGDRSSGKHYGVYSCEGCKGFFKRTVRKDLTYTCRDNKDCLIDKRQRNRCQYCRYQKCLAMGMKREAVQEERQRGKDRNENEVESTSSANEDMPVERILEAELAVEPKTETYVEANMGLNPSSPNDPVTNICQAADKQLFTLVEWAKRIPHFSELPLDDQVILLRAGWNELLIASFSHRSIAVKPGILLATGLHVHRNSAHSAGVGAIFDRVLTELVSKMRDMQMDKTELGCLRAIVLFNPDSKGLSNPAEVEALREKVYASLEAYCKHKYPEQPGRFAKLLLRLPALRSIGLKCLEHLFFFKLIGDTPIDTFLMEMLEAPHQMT
The experiment in a line: Co-activator (GRIP1) recruitment gel shift assay, BAR-RXRm heterodimer. It is filed as binding. Particulars: for recruitment of co-activator GRIP1 (gel shift): 32P-labeled IBABP IR1 response element, range of doses. From the text:
Coactivators, which bind agonist-activated nuclear receptors including, without limitation, RAR and RXR, function to assist the activated nuclear receptor exert its activity as a transcription factor. Characterized co-activators include CBP, p300, RIP140, SRC-1, ACTR, TIF2 (also called GRIP 1) and TIFI. In most cases coactivator will not bind the receptor in the absence of an agonist, moreover, receptor antagonists will often block coactivator binding, either directly or through the recruitment of a corepressor. Coactivator recruitment assays are therefore a valuable method for directly visualizing associative changes to a receptor caused by the addition of a prospective ligand.
GRIP 1 was expressed as a fusion protein with glutathione-S-transferase, an enzyme which selectively binds glutathione and can thus be used as an affinity reagent. See e.g., U.S. Pat. No. 5,654,176. The GST-GRIP1 fusion protein was expressed in E. coli and purified on glutathione-Sepharose columns. In vitro translated BAR/FXR\RXR (0.6-1.2 μl each) and GST-GRIP 1 (5 μg) were incubated for 30 min at room temperature with 100,000 cpm of the E. coli DNA polymerase Klenow fragment-labeled probes in 10 mM Tris (pH 8.0), 50 mM KCl, 6% glycerol, 0.05% NP-40, 1 mM DTT, 12.5 ng/μl poly dI-dC, and the indicated ligands. Complexes were electrophoresed through 5% polyacrylamide gel in […] (45 mM Tris-base, 45 mM boric acid, 1 mM EDTA) at room temperature. […]
To address the question of whether the two identified compounds are ligands for BAR, we used an in vitro co-activator recruitment assay. […] Because the association between co-activator and receptor results in the formation of a new higher molecular weight species, the ligand-dependent recruitment of co-activator can be detected in gel shift assays and is commonly used as an indicator for ligand binding. […]

Assay [2] concerns the target T2, Gal-L-RAR (Homo sapiens, UniProt P10276).
T2 construct: expressed in transfected cells; host or cells: CV-1
T2 sequence (P10276 156-462 limits assumed): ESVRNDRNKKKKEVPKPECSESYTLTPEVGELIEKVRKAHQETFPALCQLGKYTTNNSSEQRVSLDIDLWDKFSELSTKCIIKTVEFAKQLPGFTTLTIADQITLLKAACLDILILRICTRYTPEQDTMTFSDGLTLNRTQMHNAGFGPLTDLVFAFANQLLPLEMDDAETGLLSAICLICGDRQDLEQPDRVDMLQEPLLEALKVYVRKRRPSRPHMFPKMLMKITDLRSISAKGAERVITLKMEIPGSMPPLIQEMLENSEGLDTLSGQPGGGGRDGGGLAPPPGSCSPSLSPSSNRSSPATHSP
The experiment in a line: Gal-L-RAR fusion with Gal 4 reporter (MH100×4) in CV-1 cells. In kind it is cell-based. Particulars: 5 μM.
Experimental: The nucleic acid regions encoding the following full-length proteins were cloned into a CMV expression vector. […] The βgal contains the E. coli P-galactosidase coding sequences derived from pCH110 (accession #U02445). RXRm contains a single point mutation (Asp-322-Pro) in the LBD of human RXRα.
CV-1 African Green Monkey cells were grown in Dulbecco's Modified Eagle's medium supplemented with 10% resin-charcoal stripped fetal bovine serum (FBS), 50 U/ml penicillin G and 50 μg/ml streptomycin sulfate (DMEM-FBS) at 37° C. in 5% CO2. One day prior to transfection, cells were plated to 50-80% confluence using phenol red-free DMEM-FBS. […]
The harvested cells were assayed for the presence of luciferase activity. […] Luciferase activity was measured by reaction of the cell lysates with luciferin in a reaction buffer comprising: 20 mM tricine, 1.07 mM Mg(CO3)4-Mg(OH)2-5H2O, 2.67 mM MgSO4.7H2O, 0.1 mM EDTA, 0.5 mM Sodium luciferin, 0.15 mg/ml Coenzyme A, 5 mM DTT, and 0.5 mM adenosine triphosphate (ATP). Resulting chemiluminescence was measured in a luminometer. […]
The transfected cells were then treated with the indicated ligands for 40 hours. Activity was measured using luciferase expression in the cotransfection assay described above. […] Thus, Gal-L-RAR or Gal-L-RXR fusions were transfected into CV-1 cells with a Gal 4 reporter (MH100×4) and the effect of different ligands was evaluated.

On to `CCCCCCOc1c(\C(C)=C/C=C/C(C)=C/C(=O)O)cc(C(C)C)cc1C(C)C` [AGN 34, (2E, 4E, 6Z)-7-(2-Hexyloxy-3,5-diisopropylphenyl)-3-methylocta-2,4,6-trienoic Acid], for which the “competition (GRIP1 displacement) with BAR/RXRm heterodimer” value in assay [1] (AGN 29 as agonist, increasing AGN 34) is “same results”.
Regarding `CCCC/C(=C\c1ccc(C(=O)O)cc1)c1ccc2c(c1)C(C)(C)CCC2(C)C` [AGN 31, 4-[2-(5,5,8,8-Tetramethyl-5,6,7,8-tetrahydronaphthalen-2-yl)hex-1-enyl]benzoic Acid], in assay [1], the “recruitment of co-activator GRIP1 (gel shift)” value was “shifted the majority of the complexes”. Further, in assay [2], the “activation of RAR” value was “loss of specificity for RAR”.
The corresponding values for `Cc1cc2c(cc1/C(=C/c1ccc(C(=O)O)cc1)[Si](C)(C)C)C(C)(C)CCC2(C)C` [AGN 29, (Z)-4-[2-(3,5,5,8,8-Pentamethy1-5,6,7,8-tetrahydronaphthalen-2-yl)-2-(trimethylsilyl)vinyl]benzoic Acid] are “shifted the majority of the complexes” and “loss of specificity for RAR”.
